According to patent US20220073470A1, “INHIBITORS OF CGAS ACTIVITY AS THERAPEUTIC AGENTS” (BELLBROOK LABS, LLC, priority 2019, published 2022):
Converted amounts (≈) assume the structure as drawn. Read-outs that look alike come from different tables or passages of the source.

What was measured:
full-length human cGAS = molecular target: T1, full-length human cGAS (Homo sapiens, UniProt Q8N884); assay: cGAS enzymatic assay (FP readout), inhibition of cGAS; format: biochemical
T1 construct: The cGAS assay was used to screen 100,000 compounds with full-length human cGAS; 6xHis; made in house
T1 sequence (Q8N884 whole entry): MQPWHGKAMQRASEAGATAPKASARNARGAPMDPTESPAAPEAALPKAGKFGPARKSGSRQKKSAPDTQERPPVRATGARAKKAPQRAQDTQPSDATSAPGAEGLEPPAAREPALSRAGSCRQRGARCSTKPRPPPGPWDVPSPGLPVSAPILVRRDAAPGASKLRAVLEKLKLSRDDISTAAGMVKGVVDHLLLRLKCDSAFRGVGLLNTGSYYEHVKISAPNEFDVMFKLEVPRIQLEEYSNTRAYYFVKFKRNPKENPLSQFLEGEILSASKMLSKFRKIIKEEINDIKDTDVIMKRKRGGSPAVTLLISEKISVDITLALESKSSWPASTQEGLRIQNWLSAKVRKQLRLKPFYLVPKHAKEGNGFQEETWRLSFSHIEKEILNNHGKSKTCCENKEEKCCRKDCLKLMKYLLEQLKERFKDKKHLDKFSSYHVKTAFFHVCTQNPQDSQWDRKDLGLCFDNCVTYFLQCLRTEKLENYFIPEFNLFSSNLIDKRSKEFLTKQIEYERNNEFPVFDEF
Experimental: Some exemplary compounds of the disclosure were tested for inhibition of cGAS (30 nM). The results are provided in Table 1 where “A” indicates an IC50 of less than 100 nM, “B” indicates an IC50 of greater than 100 nM and less than 500 nM, “C” indicates an IC50 of greater than 500 nM and less than 1 μM, “D” indicates an IC50 of greater than 1 μM and less than 10 μM, and “E” indicates an IC50 of greater than 10 μM.
A homogenous cGAS enzymatic assay was developed with fluorescence polarization (FP) and time-resolved Forster resonance energy transfer (TR-FRET) readouts (FIG. 2A-D). The cGAS assay was used to screen 100,000 compounds with full-length human cGAS (FIG. 2E), resulting in the identification of novel chemotypes, two of which are further developed in a structure-driven hit-to-lead study (Table 3, below). The assay performance was robust, as indicated by respective Z and Z′ values of 0.59 and 0.63 in the screen; compounds with polarization values greater than three SDs from the mean were considered hits; a scatterplot from 10 plates (3,200 compounds) is shown in FIG. 2D.
(§1) Potency and MOA studies, including Mn^2+ sensitivity, are performed using the cGAS enzymatic assay. Dose response experiments are used to determine IC50 values under basal conditions (5 mM MgCl2, 100 μM ATP/GTP), and with the addition of physiological levels of Mn (0.2 mM) using human and mouse cGAS. Ligand optimization is driven by potency with the human enzyme; potency with mouse cGAS informs selection of an appropriate disease model for efficacy studies. Competition with ATP and GTP is assessed by comparing basal IC50 values to those in the presence of saturating ATP or GTP, and subsequently confirmed by measuring velocity vs. substrate at varying ATP or GTP levels. Inhibitor residence times (1/koff) are used as a key parameter for prioritizing compounds and driving SAR, because a longer residence time often results from an allosteric mechanism, and can also correlate with improved cellular activity. The cGAS enzymatic assay is used with the jump dilution method to measure residence times (inhibitor dissociation rates), as described for kinases using the very similar ADP assay. Biophysical methods, including SPR and TSAn, are used as orthologous methods for residence time measurements and kd estimates.

Mouse cGAS = Mouse cGAS (Mus musculus, UniProt Q8C6L5); assay: cGAS enzymatic assay with mouse cGAS; format: biochemical
Sequence of Mouse cGAS (Q8C6L5 whole entry): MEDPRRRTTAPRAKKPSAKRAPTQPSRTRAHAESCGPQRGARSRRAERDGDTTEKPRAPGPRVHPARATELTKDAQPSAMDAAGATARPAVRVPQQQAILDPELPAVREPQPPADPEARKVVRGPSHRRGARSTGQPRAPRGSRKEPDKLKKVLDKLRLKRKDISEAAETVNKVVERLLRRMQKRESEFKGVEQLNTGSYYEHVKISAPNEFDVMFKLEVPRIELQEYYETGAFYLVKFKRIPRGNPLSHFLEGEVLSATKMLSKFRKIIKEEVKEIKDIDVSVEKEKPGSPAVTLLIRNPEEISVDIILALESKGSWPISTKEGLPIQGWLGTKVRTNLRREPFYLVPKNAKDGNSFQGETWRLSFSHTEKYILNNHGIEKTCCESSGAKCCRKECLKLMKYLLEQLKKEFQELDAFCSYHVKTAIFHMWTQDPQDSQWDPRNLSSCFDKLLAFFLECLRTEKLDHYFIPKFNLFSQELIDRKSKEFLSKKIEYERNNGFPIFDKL
Experimental: as §1

[1] = Solubility Ksol in PBS pH 7.4; format: physicochemical; details: pH 7.4, aqueous buffer, kinetic from dmso stock
[2] = Human microsomal stability (NADPH); format: in vitro ADME; details: liver microsomes, read-out: Human MS Stability (NADPH) t1/2
Experimental: (§2) Compounds are tested in Caco-2 and MDR1-MDCK permeability assays to provide a measure of intestinal absorption, blood-brain-permeability and efflux by P-glycoprotein (P-gp), a frequent obstacle to effective CNS delivery. CNS drugs are associated with high passive membrane permeability (Papp>1×10^−6 cm/sec) and have low efflux ratios (Papp(B−A)/Papp(A−B)<2.5). Metabolic stability is tested using mouse and human liver microsomes incubated with NADPH for CYP-dependent metabolism and with UDPGA for glucuronidation. Compounds are tested for pharmacokinetics and brain penetration in mice using oral, intravenous and intraperitoneal administration.

[3] = Mouse microsomal stability (NADPH); format: in vitro ADME; details: liver microsomes, read-out: Mouse MS Stability (NADPH) t1/2
Experimental: as §2

[4] = system: Madin-Darby Canine Kidney cells-Multi Drug Resistance pump; assay: MDCK-MDR permeability and efflux; format: in vitro ADME
Experimental: as §2

P-glycoprotein (MDR1) = assay: MDCK-MDR permeability and efflux; format: in vitro ADME, Canine; details: dog, MDCK-MDR1
Experimental: as §2

[5] = system: kinases (Abl1, PKA, TBK1), GTPase (Rac1), phosphodiesterase (PDE4A), ENPP1; assay: Selectivity panel of nucleotide-utilizing enzymes; format: biochemical
Experimental: The compounds of formula (I) of the disclosure were tested for improved potency and other drug-like properties.
A panel of nucleotide-utilizing enzymes that included kinases (Abl1, PKA, TBK1—which transduces cGAS/STING signals, see FIG. 4) a GTPase (Rac1), a phosphodiesterase (PDE4A), and ENPP1, a nucleotidase that degrades cGAMP, was used preliminarily. cGAS assays were used to perform dose response measurements with cGAS inhibitors. In addition to these enzymes, inhibitors are tested with three other members of the oligoadenylate synthases (OAS), nucleic acid sensors that activate innate immunity via production of short, 2′-5′ oligoadenylate second messengers. Methods for expression and purification of the human and/or porcine enzymes in E. coli or baculovirus-infected insect cells have been developed as well as a simple, absorbance-based assay using commercially available pyrophosphate kit. In addition, an FP-based assay (competitive displacement of a fluor-cGAMP tracer) is developed to test compounds as ligands for STING.

[6] = system: DNA-stimulated IFNβ expression; assay: IFNβ ELISA, DNA-stimulated IFNβ expression; format: cell-based
Experimental: (§3) FIG. 5A illustrates activity of IFNβ expression of compound 14 in three different experiments. FIG. 5B illustrates the ISG mRNA expression of compound 14 in THP1-dual cells. Compound 14 in concentration of 200 μM was evaluated after 24 hours.
(§4) Cellular activity of several compounds of formula (I) was assessed in […]. For example, FIG. 5A illustrates activity of IFNβ expression, and FIG. 5B illustrates the ISG mRNA expression of compound 14 in THP1-dual cells.

[7] = system: IRF3-driven transcription; assay: IRF3-Luc reporter, THP1 dual-cell reporter system; format: cell-based; details: Homo sapiens, THP-1; read-out: Cellular IRF3-Luc
Description: (§5) FIG. 4 includes a schematic showing the THP1 dual-cell reporter system: secreted luciferase reports on IRF3-driven transcription; secreted alkaline phosphatase reports on NFκB-driven transcription, both downstream of cGAS/STING.

[8] = system: NFκB-driven transcription; assay: NFκB-SEAP reporter, THP1 dual-cell reporter system; format: cell-based; details: Homo sapiens, THP-1; read-out: Cellular NFκB-SEAP
Description: as §5

ISG mRNA expression = ISG mRNA expression in THP1-dual cells; format: cell-based
Experimental: as §3, §4

cGAS = cGAS (Homo sapiens, UniProt Q8N884); assay: SPR binding to cGAS; details: enzymatic analysis and biophysical binding studies (SPR, TSA)
Sequence of cGAS (Q8N884 whole entry): as the sequence (Q8N884 whole entry) above
Description: Following confirmation of hits at three concentrations and removal of compounds with visually evident reactivity or metabolic liabilities, non-stoichiometric inhibitors, aggregators, DNA intercalators and redox-active compounds were triaged using established assays. Initial SAR based on more than 100 commercially available analogs provided additional confidence that the compounds of the disclosure were bonafide inhibitors, and informed potential scaffold hops and toleration for modifications. The compounds of formula (I) of the disclosure were selected for advancement into a hit-to-lead study. […] The compounds of formula (I) of the disclosure are competitive with GTP and its potency is enhanced in the presence of Mn^2+.
Potency and MOA studies, including Mn^2+ sensitivity, are performed using the cGAS enzymatic assay. Dose response experiments are used to determine IC50 values under basal conditions (5 mM MgCl2, 100 μM ATP/GTP), and with the addition of physiological levels of Mn (0.2 mM) using human and mouse cGAS. Ligand optimization is driven by potency with the human enzyme; potency with mouse cGAS informs selection of an appropriate disease model for efficacy studies. Competition with ATP and GTP is assessed by comparing basal IC50 values to those in the presence of saturating ATP or GTP, and subsequently confirmed by measuring velocity vs. substrate at varying ATP or GTP levels. […]

Question: For `COc1cc2c(-n3ccnc3)ccnc2cc1Cl` [Compound 14, 7-chloro-4-(1H-imidazol-1-yl)-6-methoxyquinoline], which IC50 (full-length human cGAS; 100 μM ATP/GTP, read-out: Enzymatic FP Std (100 μM ATP/GTP)) is on record?
Answer: Its IC50 is 391 nM.

Question: What about the IC50 (full-length human cGAS; 1 mM ATP/GTP, read-out: Enzymatic FP Physiological (1 mM ATP/GTP)) of the same molecule?
Answer: Its IC50 is 1920 nM.

Question: And the IC50 (full-length human cGAS; 5 mM Mg2+, 0.2 mM Mn2+, read-out: IC50 (5 mM Mg^2+, 0.2 mM Mn^2+))?
Answer: The IC50 was 48 ± 2 nM.

Question: What about the IC50 (full-length human cGAS; 5 mM Mg2+, no Mn2+, read-out: IC50 (5 mM Mg^2+)) of the same molecule?
Answer: Its IC50 is 550 ± 10 nM.

Question: What about the IC50 (full-length human cGAS; cGAS (30 nM), no Mn2+, read-out: Inhibition cGAS (IC50 class)) of the same molecule?
Answer: Its IC50 is 500 to 1000 nM.

Question: What about the IC50 (full-length human cGAS; cGAS (30 nM), with Mn2+, read-out: Inhibition cGAS + Mn^2+ (IC50 class)) of the same molecule?
Answer: Its IC50 is < 100 nM.

Question: And the MOA (full-length human cGAS; competition with substrates)?
Answer: Its MOA is “GTP Competitive”.

Question: And the IC50 (Mouse cGAS)?
Answer: Its IC50 is 93 nM.

Question: And the solubility [1]?
Answer: Its solubility is 224 µM (≈ 58.2 µg/mL).

Question: What about the half-life [2] of the same molecule?
Answer: Its half-life is 1.93 h.

Question: And the half-life [3]?
Answer: The half-life was 0.355 h.

Question: And the MDR-1-mediated export [4]?
Answer: Its MDR-1-mediated export is “no indication of MDR-1-mediated export”.

Question: And the efflux ratio (P-glycoprotein (MDR1))?
Answer: The efflux ratio was 0.5.

Question: And the Papp A→B (P-glycoprotein (MDR1); A→B)?
Answer: The Papp A→B was 76.7 ×10⁻⁶ cm/s.

Question: And the “Off-Target Activity (Kinase, PDE, GTPase, ENPP1)” value [5]?
Answer: The value was “None”.

Question: And the “Inhibitory activity with panel of nucleotide-utilizing enzymes” value ([5]; at 200 μM, kinases, a GTPase, a phosphodiesterase, a nucleotidase)?
Answer: Its value is “lack of inhibitory activity”.

Question: What about the “DNA-stimulated IFNβ expression as measured by ELISA” value [6] of the same molecule?
Answer: The value was “specific inhibition”.

Question: What about the IC50 ([6]; read-out: Cellular IFNβ ELISA) of the same molecule?
Answer: Its IC50 is 68000 nM.

Question: And the IC50 [7]?
Answer: The IC50 was 75000 nM.

Question: What about the IC50 [8] of the same molecule?
Answer: Its IC50 is 59000 nM.

Question: What about the “ISG expression” value (ISG mRNA expression) of the same molecule?
Answer: The value was “inhibition”.

Question: And the “ISG expression (fold decrease @ 200 μM)” value (ISG mRNA expression; 200 μM, THP1-dual cells, 24 hours)?
Answer: The value was 2-10×.

Question: And the “Binding stoichiometry to cGAS” value (cGAS)?
Answer: Its value is “Stoichiometric binding (1:1)”.
